{
  "source": "patent US20130005747A1",
  "about": "“METHOD FOR SELECTING A CANCER THERAPY” (Cyclacel Limited, priority 2010, published 2013)",
  "key": {"MCF7": {"tested_on": "MCF7", "experiment": "Cell line IC50 (Table 3)", "format": "cell-based, human", "details": "Ras WT, Breast"}, "NCI-H929": {"tested_on": "NCI-H929", "experiment": "Cell line IC50 (Table 3)", "format": "cell-based, human", "details": "N-Ras, Myeloma"}, "H358": {"tested_on": "H358", "experiment": "Cell line IC50 (Table 3)", "format": "cell-based, human", "details": "Lung"}, "NCI-H460": {"tested_on": "NCI-H460", "experiment": "Cell line IC50 (Table 3)", "format": "cell-based, human", "details": "K-Ras Q61H, Lung"}, "H2052": {"tested_on": "H2052", "experiment": "Cell line IC50 (Table 3)", "format": "cell-based, human", "details": "Mesothelioma"}, "MDA-MB-436": {"tested_on": "MDA-MB-436", "experiment": "Cell line IC50 (Table 3)", "format": "cell-based, human", "details": "Ras WT, Breast"}, "LoVo": {"tested_on": "LoVo", "experiment": "Cell line IC50 (Table 3)", "format": "cell-based, human", "details": "K-Ras G13D, Colon"}, "Colo205": {"tested_on": "Colo205", "experiment": "Cell line IC50 (Table 3)", "format": "cell-based, human", "details": "Colon"}, "H292": {"tested_on": "H292", "experiment": "Cell line IC50 (Table 3)", "format": "cell-based, human", "details": "Lung"}, "H1650": {"tested_on": "H1650", "experiment": "Cell line IC50 (Table 3)", "format": "cell-based, human", "details": "Lung"}, "MESSA": {"tested_on": "MESSA", "experiment": "Cell line IC50 (Table 3)", "format": "cell-based, human", "details": "Ras WT, sarcoma"}, "A2780": {"tested_on": "A2780", "experiment": "Cell line IC50 (Table 3)", "format": "cell-based, human", "details": "Ras WT, Ovary"}, "A549": {"tested_on": "A549", "experiment": "Cell line IC50 (Table 3)", "format": "cell-based, human", "details": "K-Ras G12S, Lung"}, "cell lines of Table 3": {"tested_on": "cell lines of Table 3", "experiment": "Cell line panel of Table 3, summary over cell lines", "format": "cell-based, human", "details": "median over the cell lines of Table 3"}, "CDK": {"tested_on": "CDK", "experiment": "CDK inhibitory profile", "format": "biochemical", "details": "compared with roscovitine"}, "Saos-2": {"tested_on": "Saos-2", "experiment": "Cell line IC50 (Table 3)", "format": "cell-based", "details": "Homo sapiens, Ras WT, Osteosarcoma"}, "HT-29": {"tested_on": "HT-29", "experiment": "Cell line IC50 (Table 3)", "format": "cell-based", "details": "Homo sapiens, Ras WT, Colon"}, "LP-1": {"tested_on": "LP-1", "experiment": "Cell line IC50 (Table 3)", "format": "cell-based", "details": "Homo sapiens, Ras WT, Myeloma"}, "HCT 116": {"tested_on": "HCT 116", "experiment": "Cell line IC50 (Table 3)", "format": "cell-based", "details": "Homo sapiens, K-Ras G13D, Colon"}, "[1]": {"details": "Homo sapiens, NCI-H358, K-Ras G12C"}, "[2]": {"details": "Homo sapiens, NCI-H2052, Ras WT"}, "[3]": {"details": "Homo sapiens, NCI-H1650, Ras WT"}},
  "data": [
    {"smiles": "CC[C@H](Nc1nc(NCc2cnc(C)cc2C)c2ncn(C(C)C)c2n1)[C@@H](C)O", "note": "[Compound A]", "values": [
      {"measurement": "IC50", "setting": "MCF7", "result": 0.3, "unit": "µM"},
      {"measurement": "IC50", "setting": "NCI-H929", "result": 0.4, "unit": "µM"},
      {"measurement": "IC50", "setting": "H358; K-Ras G12C", "result": 0.2, "unit": "µM"},
      {"measurement": "IC50", "setting": "NCI-H460", "result": 0.5, "unit": "µM"},
      {"measurement": "IC50", "setting": "H2052; Ras WT", "result": 0.3, "unit": "µM"},
      {"measurement": "IC50", "setting": "MDA-MB-436", "result": 0.4, "unit": "µM"},
      {"measurement": "IC50", "setting": "LoVo", "result": 0.7, "unit": "µM"},
      {"measurement": "IC50", "setting": "Colo205; Ras WT", "result": 0.3, "unit": "µM"},
      {"measurement": "IC50", "setting": "H292; Ras WT", "result": 0.4, "unit": "µM"},
      {"measurement": "IC50", "setting": "H1650; Ras WT", "result": 0.5, "unit": "µM"},
      {"measurement": "IC50", "setting": "MESSA", "result": 0.2, "unit": "µM"},
      {"measurement": "IC50", "setting": "A2780", "result": 0.4, "unit": "µM"},
      {"measurement": "IC50", "setting": "A549", "result": 0.2, "unit": "µM"},
      {"measurement": "IC50", "setting": "cell lines of Table 3", "result": 0.4, "unit": "µM"}
    ]},
    {"smiles": "CC[C@@H](Nc1nc(NCc2cccnc2)c2ncn(C(C)C)c2n1)C(C)(C)O", "note": "[Compound B, (3R)-3-{9-isopropyl-6-[(pyridin-3-ylmethyl)-amino]-9H-purin-2-ylamino}-2-methyl-pentan-2-ol]", "values": [
      {"measurement": "IC50", "setting": "MCF7; Homo sapiens", "result": 3.6, "unit": "µM"},
      {"measurement": "CDK inhibitory profile (in words)", "setting": "CDK", "result": "very similar CDK inhibitory profiles to roscovitine"},
      {"measurement": "IC50", "setting": "NCI-H929; Homo sapiens", "result": 5.2, "unit": "µM"},
      {"measurement": "IC50", "setting": "H358; [1]", "result": 2.7, "unit": "µM"},
      {"measurement": "IC50", "setting": "NCI-H460; Homo sapiens", "result": 2.8, "unit": "µM"},
      {"measurement": "IC50", "setting": "H2052; [2]", "result": 5.2, "unit": "µM"},
      {"measurement": "IC50", "setting": "MDA-MB-436; Homo sapiens", "result": 6.6, "unit": "µM"},
      {"measurement": "IC50", "setting": "LoVo; Homo sapiens", "result": 4.5, "unit": "µM"},
      {"measurement": "IC50", "setting": "Colo205; Homo sapiens, COLO 205, Ras WT", "result": 4.5, "unit": "µM"},
      {"measurement": "IC50", "setting": "H292; Homo sapiens, NCI-H292, Ras WT", "result": 6.6, "unit": "µM"},
      {"measurement": "IC50", "setting": "H1650; [3]", "result": 6.5, "unit": "µM"},
      {"measurement": "IC50", "setting": "MESSA; Homo sapiens, MES-SA", "result": 3.6, "unit": "µM"},
      {"measurement": "IC50", "setting": "Saos-2", "result": 5.3, "unit": "µM"},
      {"measurement": "IC50", "setting": "A2780; Homo sapiens", "result": 2.6, "unit": "µM"},
      {"measurement": "IC50", "setting": "A549; Homo sapiens", "result": 3, "unit": "µM"},
      {"measurement": "IC50", "setting": "cell lines of Table 3; Homo sapiens", "result": 4.5, "unit": "µM"},
      {"measurement": "IC50", "setting": "HT-29", "result": 4.1, "unit": "µM"}
    ]},
    {"smiles": "CC[C@H](Nc1nc(NCc2cccnc2)c2ncn(C(C)C)c2n1)C(C)(C)O", "note": "[Compound C, (3S)-3-{9-isopropyl-6-[(pyridin-3-ylmethyl)-amino]-9H-purin-2-ylamino}-2-methyl-pentan-2-ol]", "values": [
      {"measurement": "IC50", "setting": "MCF7; Homo sapiens", "result": 1.6, "unit": "µM"},
      {"measurement": "CDK inhibitory profile (in words)", "setting": "CDK", "result": "very similar CDK inhibitory profiles to roscovitine"},
      {"measurement": "IC50", "setting": "NCI-H929; Homo sapiens", "result": 2.4, "unit": "µM"},
      {"measurement": "IC50", "setting": "H358; [1]", "result": 0.8, "unit": "µM"},
      {"measurement": "IC50", "setting": "NCI-H460; Homo sapiens", "result": 2.2, "unit": "µM"},
      {"measurement": "IC50", "setting": "H2052; [2]", "result": 2.4, "unit": "µM"},
      {"measurement": "IC50", "setting": "MDA-MB-436; Homo sapiens", "result": 3.4, "unit": "µM"},
      {"measurement": "IC50", "setting": "LoVo; Homo sapiens", "result": 2.2, "unit": "µM"},
      {"measurement": "IC50", "setting": "Colo205; Homo sapiens, COLO 205, Ras WT", "result": 2.3, "unit": "µM"},
      {"measurement": "IC50", "setting": "H292; Homo sapiens, NCI-H292, Ras WT", "result": 2.3, "unit": "µM"},
      {"measurement": "IC50", "setting": "LP-1", "result": 1.6, "unit": "µM"},
      {"measurement": "IC50", "setting": "H1650; [3]", "result": 3.7, "unit": "µM"},
      {"measurement": "IC50", "setting": "HCT 116", "result": 1.6, "unit": "µM"},
      {"measurement": "IC50", "setting": "MESSA; Homo sapiens, MES-SA", "result": 1.6, "unit": "µM"},
      {"measurement": "IC50", "setting": "Saos-2", "result": 2.5, "unit": "µM"},
      {"measurement": "IC50", "setting": "A2780; Homo sapiens", "result": 1.1, "unit": "µM"},
      {"measurement": "IC50", "setting": "A549; Homo sapiens", "result": 1.6, "unit": "µM"},
      {"measurement": "IC50", "setting": "cell lines of Table 3; Homo sapiens", "result": 2.2, "unit": "µM"},
      {"measurement": "IC50", "setting": "HT-29", "result": 1.7, "unit": "µM"}
    ]},
    {"smiles": "CC[C@H](Nc1nc(NCc2cccnc2)c2ncn(C(C)C)c2n1)[C@@H](C)O", "note": "[Compound D, (2R,3S)-3-({9-isopropyl-6-[(pyridin-3-ylmethyl)amino]-9H-purin-2-yl}amino)pentan-2-ol]", "values": [
      {"measurement": "IC50", "setting": "MCF7; Homo sapiens", "result": 0.4, "unit": "µM"},
      {"measurement": "CDK inhibitory profile (in words)", "setting": "CDK", "result": "very similar CDK inhibitory profiles to roscovitine"},
      {"measurement": "IC50", "setting": "NCI-H929; Homo sapiens", "result": 0.8, "unit": "µM"},
      {"measurement": "IC50", "setting": "H358; [1]", "result": 0.3, "unit": "µM"},
      {"measurement": "IC50", "setting": "NCI-H460; Homo sapiens", "result": 0.7, "unit": "µM"},
      {"measurement": "IC50", "setting": "H2052; [2]", "result": 0.9, "unit": "µM"},
      {"measurement": "IC50", "setting": "MDA-MB-436; Homo sapiens", "result": 1, "unit": "µM"},
      {"measurement": "IC50", "setting": "LoVo; Homo sapiens", "result": 0.8, "unit": "µM"},
      {"measurement": "IC50", "setting": "Colo205; Homo sapiens, COLO 205, Ras WT", "result": 0.8, "unit": "µM"},
      {"measurement": "IC50", "setting": "H292; Homo sapiens, NCI-H292, Ras WT", "result": 0.9, "unit": "µM"},
      {"measurement": "IC50", "setting": "LP-1", "result": 0.5, "unit": "µM"},
      {"measurement": "IC50", "setting": "H1650; [3]", "result": 1.2, "unit": "µM"},
      {"measurement": "IC50", "setting": "HCT 116", "result": 0.4, "unit": "µM"},
      {"measurement": "IC50", "setting": "MESSA; Homo sapiens, MES-SA", "result": 0.5, "unit": "µM"},
      {"measurement": "IC50", "setting": "Saos-2", "result": 1.4, "unit": "µM"},
      {"measurement": "IC50", "setting": "A2780; Homo sapiens", "result": 0.4, "unit": "µM"},
      {"measurement": "IC50", "setting": "A549; Homo sapiens", "result": 0.5, "unit": "µM"},
      {"measurement": "IC50", "setting": "cell lines of Table 3; Homo sapiens", "result": 0.8, "unit": "µM"},
      {"measurement": "IC50", "setting": "HT-29", "result": 1.2, "unit": "µM"}
    ]}
  ]
}
